Numbers after ± are expanded uncertainties.
How the values were obtained:
[1] = xn = mol fraction of the nth substance listed; conditions: 100 kPa, Liquid, x2 = 0; for viscosity: Concentric cylinders viscometry; for mass density: Vibrating tube method
[2] = 100 kPa, Liquid; for viscosity: Concentric cylinders viscometry; for mass density: Vibrating tube method

| SMILES | viscosity ([1]; 293.15 K) | mass density ([1]; 293.15 K) | viscosity ([1]; 298.15 K) | mass density ([1]; 298.15 K) | viscosity ([1]; 303.15 K) | mass density ([1]; 303.15 K) | viscosity ([1]; 308.15 K) | mass density ([1]; 308.15 K) | viscosity ([1]; 313.15 K) | mass density ([1]; 313.15 K) | viscosity ([1]; 318.15 K) | mass density ([1]; 318.15 K) | viscosity ([1]; 323.15 K) | mass density ([1]; 323.15 K) | also measured |
| --- | --- | --- | --- | --- | --- | --- | --- | --- | --- | --- | --- | --- | --- | --- | --- |
| CC(C)O [propan-2-ol] + CCCCn1cc[n+](C)c1.O=[N+]([O-])[O-] | 2.42 ± 0.48 mPa·s | 785.4 ± 1 kg/m3 | 2.08 ± 0.42 mPa·s | 781.1 ± 1 kg/m3 | 1.8 ± 0.36 mPa·s | 776.8 ± 1 kg/m3 | 1.56 ± 0.31 mPa·s | 772.4 ± 1 kg/m3 | 1.36 ± 0.27 mPa·s | 768 ± 1 kg/m3 | 1.19 ± 0.24 mPa·s | 763.4 ± 1 kg/m3 | 1.05 ± 0.21 mPa·s | 758.8 ± 1 kg/m3 | – |
| CCCC(C)O (stereo unspecified) [pentan-2-ol] + CCCCn1cc[n+](C)c1.O=[N+]([O-])[O-] | 3.97 ± 0.79 mPa·s | 809.3 ± 1 kg/m3 | 3.32 ± 0.66 mPa·s | 805.3 ± 1 kg/m3 | 2.81 ± 0.56 mPa·s | 801.2 ± 1 kg/m3 | 2.37 ± 0.47 mPa·s | 797 ± 1 kg/m3 | 1.99 ± 0.4 mPa·s | 792.7 ± 1 kg/m3 | 1.66 ± 0.33 mPa·s | 788.4 ± 1 kg/m3 | 1.39 ± 0.28 mPa·s | 784 ± 1 kg/m3 | – |
| CCCCn1cc[n+](C)c1.O=[N+]([O-])[O-] [1-butyl-3-methylimidazolium nitrate] | – | – | – | – | – | – | – | – | – | – | – | – | – | – | viscosity ([2]; 293.15 K): 223.54 ± 45 mPa·s; mass density ([2]; 293.15 K): 1158.3 ± 1.5 kg/m3; viscosity ([2]; 298.15 K): 168.97 ± 34 mPa·s; mass density ([2]; 298.15 K): 1155.2 ± 1.5 kg/m3; viscosity ([2]; 303.15 K): 125.36 ± 25 mPa·s; mass density ([2]; 303.15 K): 1152.3 ± 1.5 kg/m3; viscosity ([2]; 308.15 K): 96.74 ± 19 mPa·s; mass density ([2]; 308.15 K): 1149.3 ± 1.5 kg/m3; viscosity ([2]; 313.15 K): 75.12 ± 15 mPa·s; mass density ([2]; 313.15 K): 1146.5 ± 1.5 kg/m3; viscosity ([2]; 318.15 K): 56.28 ± 11 mPa·s; mass density ([2]; 318.15 K): 1143.8 ± 1.4 kg/m3; viscosity ([2]; 323.15 K): 45.17 ± 9.1 mPa·s; mass density ([2]; 323.15 K): 1141.2 ± 1.4 kg/m3 |
| CCC(C)O (stereo unspecified) [butan-2-ol] + CCCCn1cc[n+](C)c1.O=[N+]([O-])[O-] | 3.67 ± 0.73 mPa·s | 806.7 ± 1 kg/m3 | 3.04 ± 0.61 mPa·s | 802.7 ± 1 kg/m3 | 2.54 ± 0.51 mPa·s | 798.4 ± 1 kg/m3 | 2.13 ± 0.43 mPa·s | 794.1 ± 1 kg/m3 | 1.8 ± 0.36 mPa·s | 789.8 ± 1 kg/m3 | 1.54 ± 0.31 mPa·s | 785.2 ± 1 kg/m3 | 1.33 ± 0.27 mPa·s | 780.6 ± 1 kg/m3 | – |

From the NIST ThermoML archive (doi:10.1016/j.jct.2019.04.010)
